Data: ChEMBL document CHEMBL5244219, “Recent developments of quinolone-based derivatives and their activities against Escherichia coli” (Eur J Med Chem, 2018)
≈ marks a conversion by molar mass, not a printed value.

Tests used:
Escherichia coli [1] = experiment: Antibacterial activity against Escherichia coli assessed as bacterial growth inhibition; type: functional
Escherichia coli [2] = experiment: Antibacterial activity against Escherichia coli assessed as bacterial growth inhibition measured after 18 to 24 hrs by broth microdilution method; type: functional; settings: time 18-24 hrs

| Structure (SMILES) | MIC (Escherichia coli [1]) [µg/mL] | MIC (Escherichia coli [2]) [µg/mL] |
| --- | --- | --- |
| C[C@H](N)[C@@H]1CCN(c2nc3c(cc2F)c(=O)c(C(=O)O)cn3-c2ccc(O)cc2)C1 |  | < 0.05 |
| NCC1CCN(c2cc3c(cc2F)c(=O)c(C(=O)O)cn3-c2ccc(O)cc2)C1 (centres undefined) |  | < 0.05 |
| C[C@@H]1CN(c2nc3c(cc2F)c(=O)c(C(=O)O)cn3-c2ccc(O)cc2)C[C@H](C)N1 |  | < 0.05 |
| N[C@@H]1[C@H]2CN(c3cc4c(cc3F)c(=O)c(C(=O)O)cn4-c3ccc(O)cc3)C[C@@H]12 |  | < 0.05 |
| CC(=O)c1cc2ccccc2n(/N=C/c2ccc(O)cc2)c1=O | 1.6 (≈ 5.22 µM) |  |
| CC(=O)c1cc2cc(Cl)ccc2n(/N=C/c2ccccc2[N+](=O)[O-])c1=O | 1.6 (≈ 4.33 µM) |  |
| NCC1CCN(c2nc3c(cc2F)c(=O)c(C(=O)O)cn3-c2ccc(O)cc2)C1 (centres undefined) |  | < 0.05 |
| O=C(O)c1cn(-c2ccc(O)cc2)c2nc(N3CC4CC3CN4)c(F)cc2c1=O (centres undefined) |  | < 0.05 |
| CC(=O)c1cc2cc(Cl)ccc2n(/N=C/c2ccc(O)cc2)c1=O | 1.6 (≈ 4.7 µM) |  |
| C[C@@H](N)[C@H]1CCN(c2cc3c(cc2F)c(=O)c(C(=O)O)cn3-c2ccc(O)cc2)C1 |  | < 0.05 |
| O=C(O)c1cn(-c2ccc(O)cc2)c2nc(N3CC4CCCNC4C3)c(F)cc2c1=O (centres undefined) |  | < 0.05 |
| C[C@H](N)[C@H]1CCN(c2cc3c(cc2F)c(=O)c(C(=O)O)cn3-c2ccc(O)cc2)C1 |  | < 0.05 |
| N[C@H]1CN(c2cc3c(cc2F)c(=O)c(C(=O)O)cn3-c2ccc(O)cc2)CC12CC2 |  | < 0.05 |
| O=C(O)c1cn([C@@H]2C[C@@H]2F)c2cc(N3CCN(Cn4nc(-c5ccc6ccccc6c5)n(Cc5ccccc5)c4=S)CC3)c(F)cc2c1=O | ≤ 0.04 |  |
| COc1c(N2CC3CCCNC3C2)c(F)cc2c(=O)c(C(=O)O)cn(-c3ccc(O)cc3)c12 (centres undefined) |  | < 0.05 |
| C[C@H](N)[C@@H]1CCN(c2cc3c(cc2F)c(=O)c(C(=O)O)cn3-c2ccc(O)cc2)C1 |  | < 0.05 |
| N[C@@H]1CN(c2cc3c(cc2F)c(=O)c(C(=O)O)cn3-c2ccc(O)cc2)CC12CC2 |  | < 0.05 |
| COc1c(N2CC3CC2CN3)c(F)cc2c(=O)c(C(=O)O)cn(-c3ccc(O)cc3)c12 (centres undefined) |  | < 0.05 |
| COc1c(N2CCC(N)C2)c(F)cc2c(=O)c(C(=O)O)cn(-c3ccc(O)cc3)c12 (centres undefined) |  | < 0.05 |
| CN1CCN(c2nc3c(cc2F)c(=O)c(C(=O)O)cn3-c2ccc(O)cc2)CC1 |  | < 0.05 |
| O=C(O)c1cn(-c2ccc(O)cc2)c2cc(N3CCNCC3)c(F)cc2c1=O |  | < 0.05 |
| C[C@@H]1CN(c2nc3c(cc2F)c(=O)c(C(=O)O)cn3-c2ccc(O)cc2)C[C@H]1N |  | < 0.05 |
| CC(=O)c1cc2ccccc2n(/N=C/c2ccccc2Cl)c1=O | 1.6 (≈ 4.93 µM) |  |
| COc1c(N2C[C@@H](C)[C@H](N)C2)c(F)cc2c(=O)c(C(=O)O)cn(-c3ccc(O)cc3)c12 |  | < 0.05 |
| O=C(O)c1cn(-c2ccc(O)cc2)c2cc(N3CC4CCCNC4C3)c(F)cc2c1=O (centres undefined) |  | < 0.05 |
| CC1Cn2cc(C(=O)O)c(=O)c3cc(F)c(N4CCNCC4)c(c32)S1 (centres undefined) | 0.25 (≈ 0.688 µM) |  |
| CC(=O)c1cc2ccccc2n(/N=C/c2cccc([N+](=O)[O-])c2)c1=O | 1.6 (≈ 4.77 µM) |  |
| COc1c(N2C[C@@H](N)[C@@H](C)C2)c(F)cc2c(=O)c(C(=O)O)cn(-c3ccc(O)cc3)c12 |  | < 0.05 |
| C[C@@H]1CN(c2cc3c(cc2F)c(=O)c(C(=O)O)cn3-c2ccc(O)cc2)C[C@H](C)N1 |  | < 0.05 |
| COc1cc(/C=N/n2c(=O)c(C(C)=O)cc3cc(Cl)ccc32)cc(OC)c1OC | 1.6 (≈ 3.86 µM) |  |

The next lines start with the values.

| MIC (Escherichia coli [1]) [µg/mL] | MIC (Escherichia coli [2]) [µg/mL] | Structure (SMILES) |
| --- | --- | --- |
| 0.12 (≈ 0.318 µM) |  | CC1Cn2cc(C(=O)O)c(=O)c3cc(F)c(N4CCCNCC4)c(c32)S1 (centres undefined) |
| 0.12 (≈ 0.347 µM) |  | CC1Cn2cc(C(=O)O)c(=O)c3cc(F)c(-n4ccnc4)c(c32)S1 (centres undefined) |
| 0.25 (≈ 0.688 µM) |  | CN1CCN(c2c(F)cc3c(=O)c(C(=O)O)cn4c3c2SCC4)CC1 [RUFLOXACIN] |
| 0.12 (≈ 0.296 µM) |  | CCNCC1CCN(c2c(F)cc3c(=O)c(C(=O)O)cn4c3c2SC(C)C4)C1 (centres undefined) |
| 0.12 (≈ 0.318 µM) |  | CC1Cn2cc(C(=O)O)c(=O)c3cc(F)c(N4CCN(C)CC4)c(c32)S1 (centres undefined) |
| 0.12 (≈ 0.254 µM) |  | CC1Cn2cc(C(=O)O)c(=O)c3cc(F)c(N4CCN(Cc5cccc(F)c5)CC4)c(c32)S1 (centres undefined) |
| 0.12 (≈ 0.262 µM) |  | CN1CCN(c2c(F)cc3c(=O)c(C(=O)O)cn4c3c2SC(c2ccc(F)cc2)C4)CC1 (centres undefined) |
| 0.12 (≈ 0.307 µM) |  | CC1Cn2cc(C(=O)O)c(=O)c3cc(F)c(N4CCN(C=O)CC4)c(c32)S1 (centres undefined) |
| 0.12 (≈ 0.262 µM) |  | CC1Cn2cc(C(=O)O)c(=O)c3cc(F)c(N4CCN(c5ccc(F)cc5)CC4)c(c32)S1 (centres undefined) |
| 0.12 (≈ 0.305 µM) |  | O=C(O)c1cn2c3c(c(Cl)c(F)cc3c1=O)SC(c1ccccc1F)C2 (centres undefined) |
|  | < 0.05 | COc1c(N2CCNCC2)c(F)cc2c(=O)c(C(=O)O)cn(-c3ccc(O)cc3)c12 |
| 0.12 (≈ 0.23 µM) |  | CC1Cn2cc(C(=O)O)c(=O)c3cc(F)c(N4CCN(S(=O)(=O)c5ccc(F)cc5)CC4)c(c32)S1 (centres undefined) |
| 0.12 (≈ 0.305 µM) |  | O=C(O)c1cn2c3c(c(Cl)c(F)cc3c1=O)SC(c1ccc(F)cc1)C2 (centres undefined) |
| 0.12 (≈ 0.272 µM) |  | CC1Cn2cc(C(=O)O)c(=O)c3cc(F)c(N4CCN(c5ccccn5)CC4)c(c32)S1 (centres undefined) |
